Data taken from patent US4221730A, “3-[[(4-Aminophenyl)sulfonyl]amino]-N-[diaminophosphinyl]-benzamide” (Morton-Norwich Products, Inc., priority 1979, dated 1980).

Key:
Assay type in all cases: cell-based
[1] = target: T1, urease of intact Proteus mirabilis cells (Proteus mirabilis, UniProt P17086); assay: anti-urease potency using intact Proteus mirabilis cells as the source of urease; settings: 40 minutes preincubation, pH 8.0, ammonia formed in five minutes after addition of urea; read-out: concentration evincing a 50% inhibition of the urease of intact Proteus mirabilis cells
T1 construct: using intact Proteus mirabilis cells as the source of urease; endogenous in cells
Description: The anti-urease potency of the compound of this invention was determined using intact Proteus mirabilis cells as the source of urease. Compounds were preincubated with Proteus mirabilis cells suspended in a saline solution (0.1 molar) buffered with 0.1 molar tris(hydroxymethyl)aminomethane (pH 8.0). After 40 minutes preincubation, the remaining urease activity was determined by collecting the ammonia formed in five minutes after the addition of the substrate, urea. Ammonia assays were carried out according to the procedure of Seligson and Seligson [J. Lab. Clin. Med. 38, 324-330 (1951)]. Percent inhibition was calculated by comparing the amount of ammonia generated by cells preincubated with 3-[[(4-aminophenyl)sulfonyl]amino]-N-[diaminophosphinyl]-benzamide with the controls, in which preincubation was carried out in the absence of compound.

[2] = test system: Escherichia coli; assay: in vitro antibacterial activity; settings: commonly employed in vitro techniques
From the text: (§1) It is particularly inimical to Proteus mirabilis and Escherichia coli at levels of 1.4 to 5.5×10^-5 molar in commonly employed in vitro techniques for determining antibacterial activity.

[3] = test system: Proteus mirabilis; assay: in vitro antibacterial activity; settings: commonly employed in vitro techniques
From the text: as §1

T1 sequence (P17086 whole entry): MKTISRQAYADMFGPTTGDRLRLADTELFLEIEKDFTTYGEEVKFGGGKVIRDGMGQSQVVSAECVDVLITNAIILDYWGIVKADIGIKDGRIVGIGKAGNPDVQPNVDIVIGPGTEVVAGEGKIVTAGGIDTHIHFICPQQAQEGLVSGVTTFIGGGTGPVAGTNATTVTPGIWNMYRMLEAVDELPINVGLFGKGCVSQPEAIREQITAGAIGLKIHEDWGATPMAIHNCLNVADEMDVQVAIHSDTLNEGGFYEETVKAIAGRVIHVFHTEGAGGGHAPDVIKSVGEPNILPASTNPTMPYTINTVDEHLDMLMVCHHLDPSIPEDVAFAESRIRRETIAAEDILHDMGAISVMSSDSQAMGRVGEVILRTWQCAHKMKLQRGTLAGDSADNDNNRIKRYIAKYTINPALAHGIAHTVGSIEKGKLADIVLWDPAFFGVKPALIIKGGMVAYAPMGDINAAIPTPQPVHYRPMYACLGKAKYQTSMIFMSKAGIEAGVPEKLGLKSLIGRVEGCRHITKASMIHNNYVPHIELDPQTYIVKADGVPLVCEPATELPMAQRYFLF

Q: Which IC50 [1] does the source give for Nc1ccc(S(=O)(=O)Nc2cccc(C(=O)NP(N)(N)=O)c2)cc1 [3-[[(4-aminophenyl)sulfonyl]amino]-N-[diaminophosphinyl]-benzamide] here?
A: 2000 nM

Q: And the “antibacterial activity level (inimical concentration)” value [2]?
A: 1.4 to 5.5×10^-5 molar

Q: And the “antibacterial activity level (inimical concentration)” value [3]?
A: 1.4 to 5.5×10^-5 molar
